Experimental findings from ChEMBL document CHEMBL4765299 (Eur J Med Chem, 2020) are described below.

The IC50 is the point on the concentration scale where inhibition reaches its midpoint. The inhibition in vivo is the drop in the measured response relative to a control, in per cent. As a reminder, the inhibition is the percentage by which the read-out fell short of the control. Read a high inhibition as a response far below the control.

A short description of experiment [1]: (§1) against A against n against t against i against p against r against o against l against i against f against e against r against a against t against i against v against e against a against c against t against i against v against i against t against y against a against g against a against i against n against s against t against h against u against m against a against n against H against C against T against - against 8 against c against e against l against l against s against a against s against s against e against s against s against e against d against a against s against r against e against d against u against c against t against i against o against n against i against n against c against e against l against l against v against i against a against b against i against l against i against t against y against m against e against a against s against u against r against e against d against a against f against t against e against r against 7 against 2 against h against r against s against b against y against M against T against T against a against s against s against a against y against. The class given is functional, tissue-based, Homo sapiens. The conditions noted are these: hct-8.

A short description of experiment [2]: against C against y against t against o against t against o against x against i against c against i against t against y against a against g against a against i against n against s against t against h against u against m against a against n against H against F against L against - against 1 against c against e against l against l against s against a against s against s against e against s against s against e against d against a against s against r against e against d against u against c against t against i against o against n against i against n against c against e against l against l against v against i against a against b against i against l against i against t against y against m against e against a against s against u against r against e against d against a against f against t against e against r against 7 against 2 against h against r against s against b against y against M against T against T against a against s against s against a against y against. As to conditions: Homo sapiens, HFL1. The class given is ADME, tissue-based.

In another experiment the test system is HepG2. Kind of experiment: Antiproliferative against human HepG2 cells assessed as reduction in cell viability measured after 72 hrs by MTT assay. The class given is functional, cell-based. As to conditions: HepG2, 72 h.
Experiment [3] is described as follows: against A against n against t against i against p against r against o against l against i against f against e against r against a against t against i against v against e against a against c against t against i against v against i against t against y against a against g against a against i against n against s against t against h against u against m against a against n against M against D against A against - against M against B against - against 2 against 3 against 1 against c against e against l against l against s against a against s against s against e against s against s against e against d against a against s against r against e against d against u against c against t against i against o against n against i against n against c against e against l against l against v against i against a against b against i against l against i against t against y against m against e against a against s against u against r against e against d against a against f against t against e against r against 7 against 2 against h against r against s against b against y against M against T against T against a against s against s against a against y against. As to conditions: mda-mb-231. The format is functional, tissue-based, Homo sapiens.

The nature of experiment [4]: as §1, with “n against K against 5” for “n against H against C”, “K against 5 against 6” for “H against C against T”, “5 against 6 against 2” for “C against T against -”, “6 against 2 against c” for “T against - against 8 against c”. The format is functional, tissue-based, Homo sapiens. The conditions noted are these: k562.
The test system of experiment [5] is K562. Kind of experiment: Induction of cell cycle arrest in human K562 cells assessed as accumulation at S phase at 6 nM incubated for 48 hrs by propidium iodide/RNase staining based flow cytometry (reference value: 53.42%). The class given is functional.
In experiment [6] the test system is K562. As to the kind of experiment: Induction of cell cycle arrest in human K562 cells assessed as accumulation at G1 phase at 3 nM incubated for 48 hrs by propidium iodide/RNase staining based flow cytometry (reference value: 38.75%). The class given is functional. (In general: In flow cytometry, cells or beads pass a laser one at a time.)
The subject of experiment [7] is K562. Kind of experiment: Induction of cell cycle arrest in human K562 cells assessed as accumulation at S phase at 12 nM incubated for 48 hrs by propidium iodide/RNase staining based flow cytometry (reference value: 53.42%). The format is functional.
Experiment [8] concerns H22. As to the kind of experiment: Anti-tumor activity against mouse H22 cells allografted in ICR mice assessed as reduction in tumor weight at 30 mg/kg, iv administered daily for 21 days. The conditions noted are these: 504 h, time 21 day. The format is functional.
For experiment [9], the species on record is Sus scrofa. Kind of experiment: Displacement of [3H]colchicine from porcine brain tubulin at 1 uM incubated for 2 hrs by TopCount scintillation counting method relative to control. The format is tissue-based. (Displacement assays read how much labelled ligand stays bound in the presence of the test substance.)
Experiment [10] deals with K562. Kind of experiment: Induction of cell cycle arrest in human K562 cells assessed as accumulation at S phase at 3 nM incubated for 48 hrs by propidium iodide/RNase staining based flow cytometry (reference value: 53.42%). The class given is functional.
The test system of experiment [11] is K562. Kind of experiment: Induction of cell cycle arrest in human K562 cells assessed as accumulation at G1 phase at 6 nM incubated for 48 hrs by propidium iodide/RNase staining based flow cytometry (reference value: 38.75%). The format is functional.
Experiment [12] deals with K562. Kind of experiment: Induction of cell cycle arrest in human K562 cells assessed as accumulation at G2/M phase at 12 nM incubated for 48 hrs by propidium iodide/RNase staining based flow cytometry (reference value: 7.83%). The format is functional.
The test system of experiment [13] is K562. As to the kind of experiment: Induction of cell cycle arrest in human K562 cells assessed as accumulation at G2/M phase at 6 nM incubated for 48 hrs by propidium iodide/RNase staining based flow cytometry (reference value: 7.83%). The class given is functional.
The subject of experiment [14] is K562. Kind of experiment: Induction of cell cycle arrest in human K562 cells assessed as accumulation at G1 phase at 12 nM incubated for 48 hrs by propidium iodide/RNase staining based flow cytometry (reference value: 38.75%). The format is functional.
Experiment [15] deals with H22. Kind of experiment: Anti-tumor activity against mouse H22 cells allografted in ICR mice assessed as reduction in tumor weight at 15 mg/kg, iv administered daily for 21 days. The format is functional. The conditions noted are these: 504 h, time 21 day.
Experiment [16] can be described thus: Inhibition of porcine brain tubulin polymerization assessed as inhibition of microtubule assembly by measuring decrease in absorbance measured for 60 mins by fluorescence based analysis. The class given is tissue-based, Sus scrofa.
In experiment [17] the test system is K562. As to the kind of experiment: Induction of cell cycle arrest in human K562 cells assessed as accumulation at G2/M phase at 3 nM incubated for 48 hrs by propidium iodide/RNase staining based flow cytometry (reference value: 7.83%). The class given is functional.
Experiment [18] deals with H22. Kind of experiment: Antiproliferative activity against mouse H22 cells assessed as inhibition of cell growth by MTT assay. The format is functional, cell-based. Background: Tetrazolium assays rely on reduction of a dye to a coloured formazan, in cell work by metabolically active cells.
The species entered for experiment [19] is Sus scrofa. As to the kind of experiment: Displacement of [3H]colchicine from porcine brain tubulin at 5 uM incubated for 2 hrs by TopCount scintillation counting method relative to control. The format is tissue-based.
Experiment [20] has as its system H22. Kind of experiment: Anti-tumor activity against mouse H22 cells allografted in ICR mice assessed as reduction in tumor weight at 6 mg/kg, iv administered every 2 days for 21 days. The format is functional. The conditions noted are these: 504 h, time 21 day.
For experiment [21], the species on record is Sus scrofa. Kind of experiment: Induction of porcine brain tubulin polymerization assessed as induction of microtubule assembly by measuring increase in absorbance at 10 uM measured for 60 mins by fluorescence based analysis. The format is tissue-based.

Structures are written as SMILES. Active and inactive are the calls of the source. No cut-off for these calls is given here.

Consider `C=C(c1cc(OC)nc(OC)c1)c1ccc(OC)c(O)c1`, for which the IC50 in [1] was determined as 86 nM; in experiment [2], 792 nM; with HepG2 it was 77 nM; in experiment [3], 84 nM; in experiment [4] it was 44 nM.
With `C=C(c1cc(Cl)nc(N2CCNCC2)c1)c1ccc(OC)c(O)c1`, the IC50 in [4] is over 1000 nM.
`C=C(c1cc(OC)nc(OC)c1)c1cc(OC)c(OC)c(OC)c1` returned an IC50 in experiment [4] of over 1000 nM.
Still for that read-out and setting: for `C=C(c1cc(OC)nc(OC)c1)c1cccc2c1ccn2C` the value was over 1000 nM; for `C=C(c1cc(OC)nc(OC)c1)c1c[nH]c2cc(OC)ccc12`, over 1000 nM; for `C=C(c1cc(N2CCOCC2)nc(N2CCOCC2)c1)c1ccc(OC)c(O)c1`, over 1000 nM.
Consider `C=C(c1ccncc1)c1ccc(OC)c(O)c1`, for which the IC50 turned out to be 222 nM in experiment [1]; 696 nM in experiment [2]; 261 nM in the experiment with HepG2; 208 nM in experiment [3]; 151 nM in [4].
With `C=C(c1cc(N2CCCC2)nc(N2CCCC2)c1)c1ccc(OC)c(O)c1`, in experiment [4], the IC50 was over 1000 nM.
For the molecule `C=C(c1cc(C)nc(C)c1)c1ccc(OC)c(O)c1`, the IC50 in experiment [1] came to 31 nM; in experiment [2], 86 nM; with HepG2, 27 nM; in experiment [3], 29 nM; in [4], 12 nM.
As to `C=C(c1cc(OC)nc(OC)c1)c1cn(C)c2ccccc12`, in [4], the IC50 is over 1000 nM.
`C=C(c1cc(OC)nc(OC)c1)c1ccc2c(c1)OCO2`: in experiment [4], the half-maximal inhibitory concentration (IC50) was over 1000 nM.
Still for that read-out and setting: for `C=C(c1cc(OC)nc(OC)c1)c1ccc2[nH]ccc2c1` the value was over 1000 nM; for `C=C(c1cc(OC)nc(OC)c1)c1cccc2[nH]ccc12`, over 1000 nM.
In the case of `C=C(c1cc(OC)nc(OC)c1)c1ccc2c(ccn2C)c1`, the IC50 in experiment [1] is 288 nM; in experiment [2], 879 nM; in the experiment with HepG2, 300 nM; in [3], 308 nM; in experiment [4] it was 181 nM.
`C=C(c1cc(OC)nc(OC)c1)c1ccc(OC)c(OC)c1` had an IC50 in experiment [4] of over 1000 nM.
In the case of `C=C(c1ccc(OC)c(O)c1)c1cc(OC)c(OC)c(OC)c1`, the Activity in the experiment on K562 [5] was determined as 48.36%; in the experiment with K562 [6], 37.19%; in the experiment with K562 [7] it was 45.55%; in the experiment on K562 [10], 51.37%; in the experiment on K562 [11] it was 38.07%; in the experiment on K562 [12], 18.44%. Moreover, the values for the Activity in the experiment on K562 [13], with K562 [14] and with K562 [17] were 13.57%, 36.01% and 11.45%, respectively. The IC50 in [1] turned out to be 10 nM; in experiment [2] it was 86 nM; in the experiment with HepG2, 10 nM; in [3], 12 nM; in [16] it was 2370 nM; in the experiment on H22 [18], 8 nM. Also, 6 nM corresponded to half-maximal inhibition in [4] (IC50). Moreover, the inhibition in vivo at 30 mg/kg/day in the experiment with H22 [8] came out at 66.9%. For the same molecule, the inhibition in the experiment filed under Sus scrofa [9] was 74%; in the experiment filed under Sus scrofa [19], 84.6%. In addition, in the experiment with H22 [15], the inhibition in vivo at 15 mg/kg/day was determined as 56.6%.
`C=C(c1cc(Cl)nc(N(C)C)c1)c1ccc(OC)c(O)c1`: the half-inhibitory concentration (IC50) in experiment [1] came to 29 nM; in experiment [2] it was 114 nM; with HepG2 it was 27 nM; in experiment [3], 29 nM; in experiment [4] it was 16 nM.
On to `C=C(c1ccnc(C)c1)c1ccc(OC)c(O)c1`, for which the IC50 in [1] came to 32 nM; in experiment [2], 189 nM; in the experiment with HepG2, 31 nM; in experiment [3], 31 nM; in [4] it was 24 nM.
Regarding `C=C(c1cc(OC)nc(OC)c1)c1c[nH]c2ccccc12`, the IC50 in experiment [4] was over 1000 nM.
As to `C=C(c1cc(C)nc(C)c1)c1ccc2c(ccn2C)c1`, the IC50 in experiment [1] was determined as 31 nM; in experiment [2] it was 176 nM; with HepG2 it was 30 nM; in [3], 34 nM; in experiment [4], 21 nM.
Molecule `C=C(c1cc(OC)nc(OC)c1)c1cn(C)c2cc(OC)ccc12` came in with an IC50 in experiment [4] of over 1000 nM.
Take `CC(=O)O[C@H]1C(=O)[C@@]2(C)[C@H]([C@H](OC(=O)c3ccccc3)[C@]3(O)C[C@H](OC(=O)[C@H](O)[C@@H](NC(=O)c4ccccc4)c4ccccc4)C(C)=C1C3(C)C)[C@]1(OC(C)=O)CO[C@@H]1C[C@@H]2O` [PACLITAXEL]: the inhibition in vivo at 6 mg/kg with H22 [20] came to 64.3%. In addition, in the experiment filed under Sus scrofa [21], the outcome was Active. Also, the IC50 in the experiment on H22 [18] was found to be 84 nM.
